In publication PMC8571951, “An activity‐based bioprobe differentiates a novel small molecule inhibitor from a LOXL2 antibody and provides renewed promise for anti‐fibrotic therapeutic strategies” (Clinical and Translational Medicine, 2021):

What was measured:
[1] = tested on: streptozotocin and high fat diet-induced model of NASH; assay: Streptozotocin and high fat diet-induced mouse model of NASH; type: in vivo
Protocol: PXS-5338 was evaluated in a 14-week mouse model of NASH (Takakura, Koido et al. 2014), dosing therapeutically at 10 mg/kg from weeks 8-12 and increasing to 30 mg/kg from weeks 12-14. […] Telmisartan served as a positive pharmacological control.

Oral bioavailability = details: in vivo
rh LOXL2 = target: T1, rh LOXL2 (Homo sapiens, UniProt Q9Y4K0); assay: Jump dilution assay, rh LOXL2; type: biochemical
T1 sequence (Q9Y4K0 26-774): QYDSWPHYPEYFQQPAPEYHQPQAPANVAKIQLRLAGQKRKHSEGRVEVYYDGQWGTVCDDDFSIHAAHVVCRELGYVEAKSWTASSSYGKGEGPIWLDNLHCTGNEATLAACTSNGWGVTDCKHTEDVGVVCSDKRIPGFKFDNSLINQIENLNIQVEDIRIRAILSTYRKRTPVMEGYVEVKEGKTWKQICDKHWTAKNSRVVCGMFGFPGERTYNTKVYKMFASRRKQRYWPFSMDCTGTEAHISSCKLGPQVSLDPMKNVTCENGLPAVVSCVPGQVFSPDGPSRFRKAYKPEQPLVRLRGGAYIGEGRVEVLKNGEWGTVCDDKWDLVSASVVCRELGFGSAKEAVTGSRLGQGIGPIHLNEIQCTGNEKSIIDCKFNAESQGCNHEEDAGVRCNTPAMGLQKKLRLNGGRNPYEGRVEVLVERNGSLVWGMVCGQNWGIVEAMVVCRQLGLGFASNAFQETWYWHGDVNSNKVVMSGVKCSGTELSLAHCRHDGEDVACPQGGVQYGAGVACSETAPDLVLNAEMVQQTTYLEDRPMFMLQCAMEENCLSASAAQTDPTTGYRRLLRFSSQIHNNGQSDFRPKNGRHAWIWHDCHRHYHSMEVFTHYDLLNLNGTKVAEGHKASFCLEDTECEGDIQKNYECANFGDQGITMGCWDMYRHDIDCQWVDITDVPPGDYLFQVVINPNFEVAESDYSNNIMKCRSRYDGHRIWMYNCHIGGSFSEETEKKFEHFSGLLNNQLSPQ
Description: FIGURE 1 Characteristics of the activity‐based probe (ABP) PXS‐5878. (A) Chemical structure of PXS‐5878, with functional subunits denoted with different colours. The fluoroallylamine moiety (blue) was designed to interact with the lysine tyrosylquinone (LTQ) co‐factor within the lysyl oxidase active sites. An extended linker (green) was incorporated to provide optimal separation between the reactive functional group and the tag, avoiding unfavourable steric hindrance. Biotin was selected as a tag, with higher sensitivity found to be achieved using a double tag (red), resulting in PXS‐5878 as the preferred ABP. (B) Concentration‐dependent inhibition of recombinant human (rh) lysyl oxidase‐like 1‐4 (LOXL1‐4) and native bovine LOX in a standard Amplex Red assay with 30 min pre‐incubation; n = 3–4 independent experiments, standard error of mean (SEM). Native bovine LOX was used as a surrogate for human LOX as both enzymes have similar pharmacology for fluoroallylamines.[2], [9] (C) Irreversible nature of PXS‐5878 enzyme inhibition confirmed using a jump dilution assay. Enzyme (rh LOXL1, rh LOXL2 or LOXL3) was pre‐incubated with 10 × IC50 of PXS‐5878 for 30 min, then diluted 100x and remaining activity assessed by Amplex Red assay. […] Each value is an average of three experiments. (D) Schematic representation of the assay development to detect lysyl oxidase activity by PXS‐5878 using a direct enzyme‐linked assay with lysyl oxidases as the target analyte. HRP: horseradish peroxidase; TMB: 3,3′,5,5′‐tetramethylbenzidine, a chromogenic substrate. […]
For fluoroallylamine-based inhibitors, replacement of fluorine with hydrogen (leading to the corresponding des-fluoro structures) results in a drop in potency and a switch from irreversible to reversible inhibition. […] (B) For PXS-5878, removal of the fluoro moiety in a simplified analogue results in a significant drop in potency for LOXL2, meaning (ir)reversibility cannot be accurately measured.

[2] = Tissue levels after single oral dose in the rat; type: in vivo; details: single oral dose 30 mg/kg, 1 and 4 h
Protocol: FIGURE 2 Characteristics of PXS‐5338 and inhibition of lysyl oxidase‐like 2 (LOXL2) enzymatic activity in vitro and in vivo. (A) Chemical structure of PXS‐5338. […] (B) Tissue levels of PXS‐5338 measured 1 and 4 h after a single oral dose of 30 mg/kg in the rat. […] Average data from three different animals. (C) Concentration‐dependent inhibition of native […] LOX and rh LOXL1‐4 in a standard Amplex Red assay with 30 min pre‐incubation; n ≥3 independent experiments, standard error of mean (SEM). (D) PXS‐5338 inhibits rh LOXL2 in a time‐dependent manner, with increasing potency observed upon longer incubation with the enzyme. LOXL2 activity data devised from Amplex Red assay using putrescine as substrate and varying pre‐incubation times; n ≥3 independent experiments, standard error of mean (SEM). […] AB0023 and the corresponding isotype control antibody GS834298 were kindly provided by Gilead. Concentration‐response curves for the pan‐LOX inhibitor BAPN and LOXL2‐selective inhibitor PXS‐5338 are included for comparison. Data represented as mean ± SD with n = 5/concentration. […] To enable translation of preclinical data into the clinic, human plasma was incubated with different concentrations of PXS‐5338 for 30 min and the PXS‐5878/Simoa® platform used to measure the residual activity. […]

[3] = 10 mg/kg weeks 8-12, 30 mg/kg weeks 12-14

Row | Structure (SMILES) | Collagen content (hydroxyproline) [1, 3] | Fibrosis, fibrotic area (picrosirius red staining) [1, 3] | Hepatocyte ballooning [1, 3] | Immature and mature crosslinks (DHLNL and PYD) [1, 3] | NASH scoring ([1]; 10 mg/kg weeks 8-12, 30 mg/kg weeks 12-14, vs NASH group) | Oral bioavailability (Oral bioavailability) | Mode of inhibition (reversible/irreversible) of LOXL2 (rh LOXL2) | Tissue penetration / distribution [2]
1 | CC(C)c1c(Cc2ccc(S(C)(=O)=O)nc2)c2ncccc2n1C/C(F)=C/CN [PXS-5338] | significant reduction in collagen content | significantly attenuated fibrosis | reduction in hepatocyte ballooning | reduction in immature and mature crosslinks | significantly decreased NASH scoring |  |  | 
2 | CC(C)c1c(Cc2ccc(S(C)(=O)=O)nc2)c2ncccc2n1C/C(F)=C/CN [PXS‐5338] |  |  |  |  |  | good oral bioavailability | irreversibly inhibits the enzyme | good penetration, with preferential distribution to the liver followed by the kidney, lung and heart
